Columns and labels:
[1] = test system: immortalized megakaryocyte cell line; experiment: Test Example 1: platelet production, shake culturing; type: cell-based; settings: for fold induction at 10 µM: Platelet, 144 h, read-out: Amount of platelet production (vs. Control); for Amount of platelet production (vs. Control): aryl hydrocarbon receptor antagonist Compound A5 0.1 μM added at cell seeding, counted after 6 days
Experimental: The immortalized megakaryocyte cell line obtained according to the method described in WO 2016/204256 was washed twice with D-PBS(−) and then cultured in medium not containing doxycycline to terminate forced expression (cultured under conditions where gene expression is OFF). Shake culturing at 100 rpm was performed in the following medium after the cells were seeded in a 125-mL polycarbonate Erlenmeyer flask (Corning #431143) at 25 mL/flask and a seeding density of 1×10^5 cells/mL. Culturing conditions were 37° C. and 5% CO2. The medium was obtained by adding the following components to IMDM serving as the basal medium (concentrations indicate final concentrations). • FBS 15% • L-Glutamine 2 mM • ITS 100-fold dilution • MTG 450 μM • Ascorbic acid 50 μg/mL • SCF 50 ng/mL • TA-316 0.1 μg/mL • ADAM inhibitor 15 μM • ROCK inhibitor 0.5 μM […] After culturing for 6 days in total, the number of platelets was measured. The measurement method was as follows. The same operation was performed for control. At 6 days after initiation of the culturing under conditions where gene expression was OFF, a part of the culture supernatant was collected, and suspended with the following antibody and Flow-Count Fluorospheres (Beckman Coulter #7547053) to perform staining. • APC-labeled anti-CD41 antibody (BioLegend #303710) • eFluor 450-labeled anti-CD42a antibody (eBioscience #48-0428-42) • PE-labeled anti-CD42b antibody (BioLegend #303906) At 30 minutes after staining, number of platelets (CD41, CD42a and CD42b-positive cells) was counted by using FACSVerse (manufactured by BD Japan) with Flow-Count Fluorospheres. The number of platelets was given as a percentage of the control.

[2] = test system: immortalized megakaryocyte cell line; experiment: Test Example 2: platelet production, shake culturing, with various aryl hydrocarbon receptor antagonists
[3] = DMSO added at cell seeding (no AhR antagonist), compound 10 μM added at Day 3, platelets (CD41, CD42a, CD42b-positive) counted after 6 days
[4] = with aryl hydrocarbon receptor antagonist Compound A2 0.1 μM, otherwise as Test Example 1
[5] = Platelet, 144 h, read-out: Amount of platelet production (vs. Control)
[6] = comparative examples: only an aryl hydrocarbon receptor antagonist, no acrylamide compound, A1 0.75 μM, A2 0.1 μM, A3 10 μM, A4 1 μM, A5 to A8 0.1 μM

| SMILES | fold induction at 10 µM [1, 3] | Amount of platelet production (vs. Control) ([1]; compound 10 μM added at Day 3) | also measured |
| --- | --- | --- | --- |
| CCOc1ccccc1CCNC(=O)/C=C/c1c[nH]c2c(OC)cccc12 [Example 61] | 1.5 to 6.5 | ++ (not less than 6.5 times) | Amount of platelet production (vs. Control) ([2]; with aryl hydrocarbon receptor antagonist Compound A1 0.75 μM, otherwise as Test Example 1): ++ (not less than 6.5 times); Amount of platelet production (vs. Control) [2, 4]: ++ (not less than 6.5 times); Amount of platelet production (vs. Control) ([2]; with aryl hydrocarbon receptor antagonist Compound A3 10 μM, otherwise as Test Example 1): ++ (not less than 6.5 times); Amount of platelet production (vs. Control) ([2]; with aryl hydrocarbon receptor antagonist Compound A4 1 μM, otherwise as Test Example 1): ++ (not less than 6.5 times); Amount of platelet production (vs. Control) ([2]; with aryl hydrocarbon receptor antagonist Compound A7 0.1 μM, otherwise as Test Example 1): ++ (not less than 6.5 times); Amount of platelet production (vs. Control) ([2]; with aryl hydrocarbon receptor antagonist Compound A8 0.1 μM, otherwise as Test Example 1): ++ (not less than 6.5 times) |
| CCOc1ccc(OC)cc1CCNC(=O)/C=C/c1c[nH]c2c(OC)cccc12 [Example 59] | 1.5 to 6.5 | ++ (not less than 6.5 times) | Amount of platelet production (vs. Control) [2, 4]: ++ (not less than 6.5 times) |
| CC(C)n1cnc2c(NCCc3ccc(O)cc3)nc(-c3csc4ccccc34)nc21 [Compound A1, 4-[2-[[2-benzo[b]thien-3-yl-9-(1-methylethyl)-9H-purin-6-yl]amino]ethyl]phenol, reference compound] | – | – | fold induction at 0.75 µM [2, 5]: 1.5 to 6.5 |
| CC1(C)COc2nc3c(NCCc4ccc(O)c(-c5cncc(F)c5)c4)nc(-c4cncc(F)c4)nc3n21 [Compound A7, 2-(5-fluoropyridin-3-yl)-4-[2-[[2-(5-fluoropyridin-3-yl)-8,8-dimethyl-7H-purino[8,9-b][1,3]oxazol-4-yl]amino]ethyl]phenol, reference compound] | – | – | Amount of platelet production (vs. Control) [2, 6]: + (the amount of platelets production increased by not less than 1.5 times and less than 6.5 times) |
| CC1(C)CSc2nc3c(NCCc4ccc(O)c(-c5ccccc5F)c4)nc(-c4cncc(F)c4)nc3n21 [Compound A8, 2-(2-fluorophenyl)-4-[2-[[2-(5-fluoropyridin-3-yl)-8,8-dimethyl-7H-purino[8,9-b][1,3]thiazol-4-yl]amino]ethyl]phenol, reference compound] | – | – | fold induction at 0.1 µM [2, 5]: 1.5 to 6.5 |
| Cc1cc(-c2ccc(CC(=O)Nc3ccc(-c4cccnc4)cc3)cc2)ccn1 [Compound A3, 4-(2-Methyl-4-pyridinyl)-N-[4-(3-pyridinyl)phenyl]-benzeneacetamide, reference compound] | – | – | fold induction at 10 µM [2, 5]: 1.5 to 6.5 |
| COc1cccc2c(/C=C/C(=O)NCCc3ccccc3CSC)c[nH]c12 [Example 4] | – | ++ (not less than 6.5 times) | fold induction at 10 µM [1]: 1.5 to 6.5 |
| COc1ccc(-c2ccccc2)c(CCNC(=O)/C=C/c2c[nH]c3c(OC)cccc23)c1 [Example 13] | 1.5 to 6.5 | ++ (not less than 6.5 times) | – |
| CCOc1ccccc1CCNC(=O)/C=C/c1c[nH]c2c(CC)cccc12 [Example 57] | 1.5 to 6.5 | ++ (not less than 6.5 times) | Amount of platelet production (vs. Control) [2, 4]: ++ (not less than 6.5 times) |
| COc1cccc2c(/C=C/C(=O)NCCc3ccccc3-c3cccnn3)c[nH]c12 [Example 33] | 1.5 to 6.5 | ++ (not less than 6.5 times) | – |
| CCOc1ccccc1CCNC(=O)/C=C/c1c[nH]c2c(OC)nccc12 [Example 36] | 1.5 to 6.5 | ++ (not less than 6.5 times) | – |
| CCSc1ccccc1CCNC(=O)/C=C/c1c[nH]c2c(OC)cccc12 [Example 3] | 1.5 to 6.5 | ++ (not less than 6.5 times) | – |
| COc1cccc2c(/C=C/C(=O)NCCc3ccccc3-c3nccs3)c[nH]c12 [Example 14] | – | ++ (not less than 6.5 times) | fold induction at 10 µM [1]: 1.5 to 6.5 |
| CC1(C)COc2nc3c(NCCc4ccc(O)c(-c5ccccc5F)c4)nc(-c4cncc(F)c4)nc3n21 [Compound A6, 2-(2-fluorophenyl)-4-[2-[[2-(5-fluoropyridin-3-yl)-8,8-dimethyl-7H-purino[8,9-b][1,3]oxazol-4-yl]amino]ethyl]phenol, reference compound] | – | – | Amount of platelet production (vs. Control) [2, 6]: + (the amount of platelets production increased by not less than 1.5 times and less than 6.5 times) |
| Cc1ccccc1/N=N/c1ccc(NC(=O)c2ccnn2C)c(C)c1 [Compound A4, 1-Methyl-N-[2-methyl-4-[2-(2-methylphenyl)diazenyl]phenyl]-1H-pyrazole-5-carboxamide, reference compound] | – | – | fold induction at 1 µM [2, 5]: 1.5 to 6.5 |
| COc1cccc2c(/C=C/C(=O)NCCc3ccccc3-c3ccccc3)cn(C(=O)c3ccccc3)c12 [Example 25, (E)-3-(1-benzoyl-7-methoxyindol-3-yl)-N-[2-(2-phenylphenyl)ethyl]prop-2-enamide] | 1.5 to 6.5 | ++ (not less than 6.5 times) | – |
| COc1cccn2c(/C=C/C(=O)NCCc3ccccc3-c3ncccn3)cnc12 [Example 40] | 1.5 to 6.5 | ++ (not less than 6.5 times) | – |
| COc1cccc2c(/C=C/C(=O)NCCc3ccccc3-c3ccccc3)cn(C(C)=O)c12 [Example 24, (E)-3-(1-acetyl-7-methoxyindol-3-yl)-N-[2-(2-phenylphenyl)ethyl]prop-2-enamide] | 1.5 to 6.5 | ++ (not less than 6.5 times) | – |
| COc1cccc2c(/C=C/C(=O)NCCc3ccccc3-c3ncc(F)cn3)c[nH]c12 [Example 51] | 1.5 to 6.5 | ++ (not less than 6.5 times) | – |
| COc1cccc2c(/C=C/C(=O)NCCc3ccsc3-c3ccccc3)c[nH]c12 [Example 22] | – | ++ (not less than 6.5 times) | fold induction at 10 µM [1]: 1.5 to 6.5 |
| COc1cccc2c(/C=C/C(=O)NCCc3occc3-c3ccccc3)c[nH]c12 [Example 44] | 1.5 to 6.5 | ++ (not less than 6.5 times) | – |
| CCOc1ccccc1CCNC(=O)/C=C/n1cnc2c(OC)cccc21 [Example 38] | 1.5 to 6.5 | + (the amount of platelets production increased by not less than 1.5 times and less than 6.5 times) | – |
| CCOc1ccccc1CCNC(=O)/C=C/c1c[nH]c2c(C)cccc12 [Example 60] | 1.5 to 6.5 | ++ (not less than 6.5 times) | Amount of platelet production (vs. Control) [2, 4]: ++ (not less than 6.5 times) |
| CCOc1ccsc1CCNC(=O)/C=C/c1c[nH]c2c(OC)cccc12 [Example 11] | 1.5 to 6.5 | ++ (not less than 6.5 times) | – |
| COc1cccc2c(/C=C/C(=O)NCCc3ccccc3-c3cccs3)c[nH]c12 [Example 19, (E)-3-(7-methoxy-1H-indol-3-yl)-N-[2-(2-thiophene-2-ylphenyl)ethyl]prop-2-enamide] | 1.5 to 6.5 | ++ (not less than 6.5 times) | – |
| CC1(C)COc2nc3c(NCCc4ccc(O)c(-c5cccc(C#N)c5)c4)nc(-c4cncc(F)c4)nc3n21 [Compound A5, 3-[5-[2-[[2-(5-Fluoropyridin-3-yl)-8,8-dimethyl-7H-purino[8,9-b][1,3]oxazol-4-yl]amino]ethyl]-2-hydroxyphenyl]benzonitrile, reference compound] | – | – | Amount of platelet production (vs. Control) [2, 6]: + (the amount of platelets production increased by not less than 1.5 times and less than 6.5 times) |

From US20240109842A1, “ACRYLAMIDE COMPOUNDS” (OTSUKA PHARMACEUTICAL CO., LTD., priority 2019, published 2024)
